Columns and labels:
TXA2 receptor [1] = target: T1, TXA2 receptor (Oryctolagus cuniculus, UniProt Q6WQI8); experiment: TXA2 Receptor Binding Test 1 ([3H]SQ29548, washed rabbit platelets); set-up: species or system New Zealand White rabbit; details: [3H]SQ29548 3 nM, rabbit washed platelets 10 mg/ml, 25° C., 60 minutes
T1 sequence (Q6WQI8 1-233): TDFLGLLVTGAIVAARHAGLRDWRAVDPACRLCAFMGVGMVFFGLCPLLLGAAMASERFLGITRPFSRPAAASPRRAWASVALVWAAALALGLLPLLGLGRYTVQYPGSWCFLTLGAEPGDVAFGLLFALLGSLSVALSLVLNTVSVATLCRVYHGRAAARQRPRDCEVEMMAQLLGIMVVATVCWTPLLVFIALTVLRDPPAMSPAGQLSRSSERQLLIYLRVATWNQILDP
Description: TXA2 Receptor Binding Test 1
Blood from a New Zealand White rabbit is taken in a vessel containing ACD solution (prepared by dissolving 1.175 g of sodium citrate, 0.685 g of citric acid and 1 g of dextrose in 50 ml of distilled water) and centrifuged at 180×g for 10 minutes at room temperature to obtain platelet-rich plasma. The obtained platelet-rich plasma is centrifuged at […] at room temperature to precipitate platelets. The platelets are then suspended in 50 mM Tris-HCl buffer (pH 7.2, containing 0.154M of NaCl) and the suspension is centrifuged at 2800×g for 15 minutes at 4° C. These operations are repeated twice to prepare washed platelets and the concentration of the platelets are adjusted to a final concentration of 10 mg/ml (wet weight).
As the ligand of TXA2, tritium-labelled SQ29548 ([^3 H]SQ29548) is used. In the antagonism test, 20 μl of [^3 H]SQ29548 having a final concentration of 3 nM is added to 500 μl of a platelet suspension having a platelet concentration of 10 mg/ml and 2.6 μl of a solution of a test compound dissolved in an appropriate solvent is added thereto. After incubating the resulting mixture at 25° C. for 60 minutes, the mixture is filtered through a glass filter by the cell harvester method. After washing the filter with 50 mM Tris-HCl buffer (3×4 ml), the radioactivity of the filter is measured by a scintillation counter, thereby measuring the amount of the [^3 H]SQ29548 bound to platelets. In the saturation test, 20 μl of [^3 H]SQ29548 is added to a final concentration of 0.1-50 nM and 2.6 μl of BM13505 having a final concentration of 1 μM is added so as to check non-specific binding, followed by carrying out the binding test. The concentration of the test compound at which binding of [^3 H]SQ29548 is inhibited by 50% is determined as the IC50 value.
The results of the evaluation of the activities of the compounds of the present invention by this method are summarized d in Table 3.

[2] = tested on: platelet aggregation induced by ADP; experiment: Platelet Aggregation-Inhibition Action 2 (ADP-induced, platelet-rich plasma); type: cell-based; details: ADP 1-3 μM final, PRP, compound added one minute before ADP
Description: Platelet Aggregation-Inhibition Action 2
(§1) Blood collected from medial cubital vein is centrifuged at 800 rmp for 10 minutes and the upper portion of the resultant is collected as platelet-rich plasma PRP). The PRP is dividedly poured into small test tubes and ADP is added thereto (final concentration: 1-3 μM) so as to induce platelet aggregation. The degree of platelet aggregation is measured in terms of change in turbidity by a platelet aggregation measuring apparatus Hematoracer, NIKO BIOSCIENCE). The compound is added one minute before the addition of ADP the concentration of the compound at which the aggregation is inhibited by 50% is calculated as IC50 value.

[3] = tested on: platelet aggregation induced by TXA2 agonist U-46619; experiment: Platelet Aggregation-inhibition Action 1 (U-46619-induced, platelet-rich plasma); type: cell-based; details: U-46619 1-4 μM final, PRP, compound added one minute before U-46619
Description: Platelet Aggregation-inhibition Action 1
as §1, with “plasma (PRP).” for “plasma PRP).”, “and a TXA2 agonist U-46619” for “and ADP”, “concentration: 1-4” for “concentration: 1-3”, “apparatus (Hematoracer,” for “apparatus Hematoracer,”, “of U-46619 and” for “of ADP”

PGI2 receptor = target: T2, PGI2 receptor (Homo sapiens, UniProt P43119); experiment: PGI2 Receptor Binding Test ([3H]APS-314d, platelet membrane fraction); details: platelet membrane fraction 0.1 mg protein/ml, 4° C., 60 minutes, Ki=IC50/[1+(radioactive ligand concentration/Kd)]
T2 construct: platelet membrane fraction having a concentration of 0.1 mg protein/ml; endogenous in cells
T2 sequence (P43119 whole entry): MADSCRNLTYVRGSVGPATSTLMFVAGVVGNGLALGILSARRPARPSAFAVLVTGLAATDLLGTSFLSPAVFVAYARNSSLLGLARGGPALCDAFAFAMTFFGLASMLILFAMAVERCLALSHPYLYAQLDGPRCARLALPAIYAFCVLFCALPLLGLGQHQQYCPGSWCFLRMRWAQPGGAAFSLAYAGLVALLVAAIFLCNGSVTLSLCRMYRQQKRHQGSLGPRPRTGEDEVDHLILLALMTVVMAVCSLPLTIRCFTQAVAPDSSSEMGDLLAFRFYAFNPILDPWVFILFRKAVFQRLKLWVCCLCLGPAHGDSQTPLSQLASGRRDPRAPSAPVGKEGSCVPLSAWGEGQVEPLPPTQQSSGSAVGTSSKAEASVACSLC
Description: PGI2 Receptor Binding Test
As the ligand of PGI2 receptor, tritium-labelled (1R,2R,3aS,8bS)-2,3,3a,8-tetrahydro-2-hydroxy-1-[(E)-(3S,4S)-3-hydroxy-4-methyl-1-octene-6-ynyl]-1H-cyclopenta[b]benzofuran-5-butanoic acid ([^3 H]APS-314d) was used. The saturation test was carried out by reacting [^3 H]APS-314d (100 μl) having a final concentration of 3-100 nM with a suspension (100 μl) of platelet membrane fraction having a concentration of 0.1 mg protein/ml at 4° C. for 60 minutes under shaking. The competition test was carried out by mixing a mixture (100 μl) of a test compound dissolved in an appropriate solvent and then diluted and [^3 H]APS-314d, and the suspension of platelet membrane fraction (100 μl) having a concentration of 0.1 mg protein/ml, and allowing the mixture to react at 4° C. for 60 minutes under shaking. After the reaction, the resultant was filtered through a glass filter using a cell harvester to collect the membrane fraction on the glass filter. The filter was washed with a iced buffer and radioactivity was measured by scintillation counter. The non-specific binding to substances other than the platelets was measured by the reaction in the presence of sodium beraprost having a final concentration of 10 nM. The IC50 value of the test compound and Hill coefficient in the binding test was determined by Pseudo-Hill plot. The receptor dissociation constant (Ki value) was calculated according to the following equation from the IC50 value and the receptor dissociation constant (Kd value) of [^3 H]APS-314d determined in the saturation test.
Ki=IC50 /[1+(radioactive ligand concentration/Kd)]

TXA2 receptor [4] = target: T3, TXA2 receptor (Homo sapiens, UniProt P21731); experiment: TXA2 Receptor Binding Test 2 ([3H]SQ29548, human platelet membrane fraction); details: 25° C., 30 minutes, pH 7.4, Ki=IC50/[1+(radioactive ligand concentration/Kd)]
T3 construct: the finally obtained precipitate was collected as the platelet membrane fraction; endogenous in cells; host or cells: membrane fraction of human platelets
T3 sequence (P21731 1-343): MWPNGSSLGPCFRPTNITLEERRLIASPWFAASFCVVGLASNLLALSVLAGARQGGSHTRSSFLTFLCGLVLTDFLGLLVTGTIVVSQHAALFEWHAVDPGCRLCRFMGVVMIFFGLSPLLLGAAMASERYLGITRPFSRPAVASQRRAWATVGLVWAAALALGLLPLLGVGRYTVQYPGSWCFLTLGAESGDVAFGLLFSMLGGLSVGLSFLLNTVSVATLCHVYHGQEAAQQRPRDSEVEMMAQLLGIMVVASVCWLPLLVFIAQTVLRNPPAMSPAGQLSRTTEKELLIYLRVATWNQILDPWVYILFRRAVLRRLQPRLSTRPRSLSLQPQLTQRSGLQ
Description: TXA2 Receptor Binding Test 2
Blood collected from human forearm vein and ACD solution (85 mM trisodium citrate, 65 mM citric acid, 2% glucose) in an amount of 1/10 volume of the blood were mixed the resultant was dividedly poured into Spitz tubes an amount of 8 ml/tube. The mixture was centrifuged at 200×g for 10 minutes at room temperature to obtain platelet-rich plasma and the obtained platelet-rich plasma was centrifuged at 1000×g for 15 minutes to obtain platelets. The platelets were washed by centrifugation using a washing buffer (115 mM sodium chloride, 4.3 mM potassium dihydrogen phosphate, 5.5 mM glucose, 1 mM disodium EDTA, 10 μM indomethacin, pH 6.5) and 1 ml of a melting buffer (10 mM Tris(hydroxymethyl)aminomethane, 5 mM magnesium chloride, 2 mM disodium EDTA, pH 7.4) was added. The resultant was frozen in liquid nitrogen and thawed at room temperature. By repeating freezing in liquid nitrogen and thawing totally three times, the platelets were ruptured. The resultant was washed three times by ultracentrifugation (40,000×g, each 20 minutes) using iced 5 mM Tris-HCl buffer, and the finally obtained precipitate was collected as the platelet membrane fraction.
As the ligand of TXA2, tritium-labelled SQ29548 ([^3 H]SQ29548) was used. As the solvent for the receptor binding reaction, 50 mM Tris-HCl buffer (5 mM magnesium chloride, pH 7.4) was used. […] The filter was washed with a iced buffer and radioactivity was measured by scintillation counter. The non-specific binding to substances other than the platelets was measured by the reaction in the presence of SQ29548 having a final concentration of […]. The IC50 value of the test compound and Hill coefficient in the binding test was determined by Pseudo-Hill plot. The receptor dissociation constant (Ki value) was calculated according to the following equation from the IC50 value and the receptor dissociation constant (Kd value) of [^3 H]SQ29548 determined in the saturation test. […]

SMILES | IC50 (TXA2 receptor [1]) | IC50 [2] | IC50 [3] | Ki (PGI2 receptor) | Ki (TXA2 receptor [4])
Cc1oc2c(OCC(=O)O)cccc2c1CNS(=O)(=O)CCc1ccccc1 [Example 16, (3-(((2-phenylethyl)sulfonylamino)methyl)-2-methylbenzofuran-7-yloxy)aceticacid] | 0.0545 µM | 403 µM | 0.5 µM |  | 
Cc1oc2c(OCC(=O)O)cccc2c1CCSCCc1ccccc1 [Example 31, (3-(2-(2-phenylethylthio)ethyl)-2-methylbenzofuran-7-yloxy)acetic acid] | 0.0513 µM | 265 µM | 0.44 µM |  | 
COC(=O)COc1cccc2c(CCSC(c3ccccc3)c3ccccc3)coc12 [Example 67, Methyl (3-(2-(diphenylmethylthio)ethyl)benzofuran-7-yloxy)acetate] |  |  |  |  | 0.31 µM
O=C(O)COc1cccc2c(CCSC(c3ccccc3)c3ccccc3)coc12 [Example 68] |  | 6.2 µM | 0.9 µM | 0.41 µM | 

Continued by falling IC50 [3], values first:

IC50 (TXA2 receptor [1]) | IC50 [2] | IC50 [3] | Ki (PGI2 receptor) | Ki (TXA2 receptor [4]) | SMILES
0.0267 µM |  | 5.1 µM |  |  | O=C(O)COc1cccc2c1ccn2CCNS(=O)(=O)c1ccccc1 [Example 104, (1-(2-(phenylsulfonylamino)ethyl)indole-4-yloxy)acetic acid]
 | 7.8 µM | 4.8 µM | 0.38 µM | 7.7 µM | O=C(O)COc1cccc2c(COCCC(c3ccccc3)c3ccccc3)coc12 [Example 48, (3-((3,3-diphenylpropyloxy)methyl)benzofuran-7-yloxy)acetic acid]
 | 3.6 µM | 1.7 µM | 0.44 µM | 3.6 µM | O=C(O)COc1cccc2c1ccn2CCCC(c1ccccc1)c1ccccc1 [Example 118, (1-(4,4-diphenylbutyl)indole-4-yloxy)acetic acid]
1.1 µM | 201 µM | 1 µM |  |  | Cc1oc2c(OCC(=O)O)cccc2c1CNS(=O)(=O)Cc1ccccc1 [Example 15, Methyl (3-((benzylsulfonylamino)methyl)-2-methylbenzofuran-7-yloxy)acetic acid]
